According to patent publication US10308644B2, “Heterocyclic compounds as immunomodulators” (Incyte Corporation, priority 2016, dated 2019):

target: PD-1/PD-L1 (Homo sapiens (Human), UniProt Q9NZQ7); assay: PD-1/PD-L1 Homogeneous Time-Resolved Fluorescence (HTRF) Binding Assay; conditions: recombinant human PD-1 (3 nM) and PD-L1 (10 nM), 25° C., PBS pH 7.4
Method in brief: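 Fc-tagged human PD-1 (25-167, 3 nM) and His-tagged PD-L1 (19-238, 10 nM) preincubated with inhibitor 40 min in PBS pH 7.4, 0.05% Tween-20, 0.1% BSA, 1% DMSO, 25 °C. Binding detected by HTRF (Eu anti-IgG/APC anti-His, 665/620 nm) after 60 min; IC50 from percent control activity.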

Chain of PD-1/PD-L1 (Q9NZQ7 19-238): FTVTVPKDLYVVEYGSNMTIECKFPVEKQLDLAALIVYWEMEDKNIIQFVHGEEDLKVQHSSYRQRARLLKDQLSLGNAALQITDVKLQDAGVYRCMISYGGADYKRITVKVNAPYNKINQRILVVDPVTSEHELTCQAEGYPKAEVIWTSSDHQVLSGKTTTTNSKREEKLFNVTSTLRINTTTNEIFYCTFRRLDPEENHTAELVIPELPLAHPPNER

Structure (SMILES) | IC50 [µM]
Cc1c(Nc2nccc3cc(CN4CC[C@@H](O)C4)cnc23)cccc1-c1cccc(-c2nc3cc(CN[C@H]4CCC[C@H]4C(=O)O)cc(C#N)c3o2)c1C [Example 175, (1R,2S)-2-((7-cyano-2-(3′-(3-(((R)-3-hydroxypyrrolidin-1-yl)methyl)-1,7-naphthyridin-8-ylamino)-2,2′-dimethylbiphenyl-3-yl)benzo[d]oxazol-5-yl)methylamino) cyclopentanecarboxylic acid] | ≤ 0.01
Cc1c(Nc2nccc3cc(CN4CC[C@H](O)C4)cnc23)cccc1-c1cccc(-c2nc3cc(CNCCC(=O)O)cc(Cl)c3o2)c1C [Example 20, (S)-3-((7-chloro-2-(3′-(3-((3-hydroxypyrrolidin-1-yl)methyl)-1,7-naphthyridin-8-ylamino)-2,2′-dimethylbiphenyl-3-yl)benzo[d]oxazol-5-yl)methylamino)propanoic acid] | ≤ 0.01
Cc1c(-c2nc3c(o2)CN(C(=O)CN(C)C)C3)cccc1-c1cccc(-c2nc3cc(CN4CC[C@@H](C(=O)O)C4)cc(C#N)c3o2)c1C [Example 122, (R)-1-((7-cyano-2-(3′-(5-(dimethylglycyl)-5,6-dihydro-4H-pyrrolo[3,4-d]oxazol-2-yl)-2,2′-dimethyl-[1,1′-biphenyl]-3-yl)benzo[d]oxazol-5-yl)methyl)pyrrolidine-3-carboxylic acid] | ≤ 0.01
Cc1c(Nc2nccn3c(CN4CC[C@H](O)C4)cnc23)cccc1-c1cccc(-c2nc3cc(CN4CC[C@H](C(=O)O)C4)cc(C#N)c3o2)c1C [Example 152, (S)-1-((7-cyano-2-(3′-(3-(((S)-3-hydroxypyrrolidin-1-yl)methyl)imidazo[1,2-a]pyrazin-8-ylamino)-2,2′-dimethylbiphenyl-3-yl)benzo[d]oxazol-5-yl)methyl)pyrrolidine-3-carboxylic acid] | ≤ 0.01
Cc1c(Nc2nccc3nccnc23)cccc1-c1cccc(-c2nc3cc(CN4CC[C@@H](C(=O)O)C4)cc(C#N)c3o2)c1C [Example 12, (R)-1-((7-cyano-2-(2,2′-dimethyl-3′-(pyrido[4,3-b]pyrazin-5-ylamino)biphenyl-3-yl)benzo[d]oxazol-5-yl)methyl)pyrrolidine-3-carboxylic acid] | ≤ 0.01
Cc1c(-c2nc3cc(CN4CC5(CC(C(=O)O)C5)C4)cc(C#N)c3o2)cccc1-c1cccc(-c2nc3c(s2)CN(C(=O)CN(C)[C@H](C)CO)C3)c1C [Example 231, 2-((7-cyano-2-(3′-(5-(2-(((R)-1-hydroxypropan-2-yl)(methyl)amino)acetyl)-5,6-dihydro-4H-pyrrolo[3,4-d]thiazol-2-yl)-2,2′-dimethylbiphenyl-3-yl)benzo[d]oxazol-5-yl)methyl)-2-azaspiro[3.3]heptane-6-carboxylic acid] | ≤ 0.01
Cc1c(Nc2nccc3cc(CN4CC[C@@H](O)C4)cnc23)cccc1-c1cccc(-c2nc3cc(CN[C@@H]4CC[C@H](C(=O)O)C4)cc(C#N)c3o2)c1C [Example 170, (1S,3R)-3-((7-cyano-2-(3′-(3-(((R)-3-hydroxypyrrolidin-1-yl)methyl)-1,7-naphthyridin-8-ylamino)-2,2′-dimethylbiphenyl-3-yl)benzo[d]oxazol-5-yl)methylamino)cyclopentanecarboxylic acid] | ≤ 0.01
Cc1c(Nc2nccc3cc(CN4CCCC4)cnc23)cccc1-c1cccc(-c2nc3cc(CN4CC[C@@](C)(C(=O)O)C4)cc(C#N)c3o2)c1C [Example 193, (R)-1-((7-cyano-2-(2,2′-dimethyl-3′-(3-(pyrrolidin-1-ylmethyl)-1,7-naphthyridin-8-ylamino)biphenyl-3-yl)benzo[d]oxazol-5-yl)methyl)-3-methylpyrrolidine-3-carboxylic acid] | ≤ 0.01
Cc1c(Nc2nccc3cc(CNCCO)cnc23)cccc1-c1cccc(-c2nc3cc(CNCCC(=O)O)cc(Cl)c3o2)c1C [Example 6, 3-(((7-chloro-2-(3′-((3-(((2-hydroxyethyl)amino)methyl)-1,7-naphthyridin-8-yl)amino)-2,2′-dimethyl-[1,1′-biphenyl]-3-yl)benzo[d]oxazol-5-yl)methyl)amino)propanoic acid] | ≤ 0.01
Cc1c(-c2nc3cc(CN4CC[C@@](C)(C(=O)O)C4)cc(C#N)c3o2)cccc1-c1cccc(Nc2nccc3cc(CN4CC[C@@H](O)C4)cnc23)c1Cl [Example 187, (R)-1-((2-(2′-chloro-3′-(3-(((R)-3-hydroxypyrrolidin-1-yl)methyl)-1,7-naphthyridin-8-ylamino)-2-methylbiphenyl-3-yl)-7-cyanobenzo[d]oxazol-5-yl)methyl)-3-methylpyrrolidine-3-carboxylic acid] | ≤ 0.01
Cc1c(-c2nc3c(o2)CN(C(=O)CN2CCC(O)CC2)C3)cccc1-c1cccc(-c2nc3cc(CN4CC5CC4CC5C(=O)O)cc(C#N)c3o2)c1C (stereo not drawn) [Example 251, 2-((7-cyano-2-(3′-(5-(2-(4-hydroxypiperidin-1-yl)acetyl)-5,6-dihydro-4H-pyrrolo[3,4-d]oxazol-2-yl)-2,2′-dimethyl-[1,1′-biphenyl]-3-yl)benzo[d]oxazol-5-yl)methyl)-2-azabicyclo[2.2.1]heptane-5-carboxylic acid] | ≤ 0.01
Cc1c(-c2nc3c(o2)CN(C(=O)CCN(C)C)C3)cccc1-c1cccc(-c2nc3cc(CN4CC[C@@H](C(=O)O)C4)cc(C#N)c3o2)c1C [Example 125, (R)-1-((7-cyano-2-(3′-(5-(3-(dimethylamino)propanoyl)-5,6-dihydro-4H-pyrrolo[3,4-d]oxazol-2-yl)-2,2′-dimethyl-[1,1′-biphenyl]-3-yl)benzo[d]oxazol-5-yl)methyl)pyrrolidine-3-carboxylic acid] | ≤ 0.01
CC[C@@H](CO)NCc1cnc2c(Nc3cccc(-c4cccc(-c5nc6cc(CN7CC[C@@](C)(C(=O)O)C7)cc(C#N)c6o5)c4C)c3C)nccc2c1 [Example 194, (R)-1-((7-cyano-2-(3′-(3-(((S)-1-hydroxybutan-2-ylamino)methyl)-1,7-naphthyridin-8-ylamino)-2,2′-dimethylbiphenyl-3-yl)benzo[d]oxazol-5-yl)methyl)-3-methylpyrrolidine-3-carboxylic acid] | ≤ 0.01
Cc1c(Nc2nccc3cc(CN4CC[C@@H](O)C4)cnc23)cccc1-c1cccc(-c2nc3cc(CN4CC[C@H](C(=O)O)C4)cc(C#N)c3o2)c1C [Example 28, (S)-1-((7-cyano-2-(3′-(3-(((R)-3-hydroxypyrrolidin-1-yl)methyl)-1,7-naphthyridin-8-ylamino)-2,2′-dimethylbiphenyl-3-yl)benzo[d]oxazol-5-yl)methyl)pyrrolidine-3-carboxylic acid] | ≤ 0.01
Cc1c(Nc2nccc3cc(CN[C@@H](C)CO)cnc23)cccc1-c1cccc(-c2nc3cc(CN4CC[C@@](C)(C(=O)O)C4)cc(C#N)c3o2)c1C [Example 195, (R)-1-((7-cyano-2-(3′-(3-(((S)-1-hydroxypropan-2-ylamino)methyl)-1,7-naphthyridin-8-ylamino)-2,2′-dimethylbiphenyl-3-yl)benzo[d]oxazol-5-yl)methyl)-3-methylpyrrolidine-3-carboxylic acid] | ≤ 0.01
Cc1c(-c2nc3cc(CN4CC(C(=O)O)C4)cc(C#N)c3o2)cccc1-c1cccc(-c2nc3c(s2)CN(CCO)CC3)c1C [Example 68, 1-((7-cyano-2-(3′-(5-(2-hydroxyethyl)-4,5,6,7-tetrahydrothiazolo[5,4-c]pyridin-2-yl)-2,2′-dimethyl-[1,1′-biphenyl]-3-yl)benzo[d]oxazol-5-yl)methyl)azetidine-3-carboxylic acid] | ≤ 0.01
CCN1CCc2nc(-c3cccc(-c4cccc(-c5nc6cc(CN7CC[C@@H](C(=O)O)C7)cc(Cl)c6o5)c4C)c3C)sc2C1 [Example 60, (R)-1-((7-chloro-2-(3′-(5-ethyl-4,5,6,7-tetrahydrothiazolo[5,4-c]pyridin-2-yl)-2,2′-dimethyl-[1,1′-biphenyl]-3-yl)benzo[d]oxazol-5-yl)methyl)pyrrolidine-3-carboxylic acid] | ≤ 0.01
Cc1c(COc2cc(OCc3cncc(C#N)c3)c(CN3CC[C@@H](O)C3)cc2Cl)cccc1-c1cccc(-c2nc3cc(CN4CC[C@@H](C(=O)O)C4)cc(Cl)c3o2)c1C [Example 148, (R)-1-((7-chloro-2-(3′-((2-chloro-5-((5-cyanopyridin-3-yl)methoxy)-4-(((R)-3-hydroxypyrrolidin-1-yl)methyl)phenoxy)methyl)-2,2′-dimethyl-[1,1′-biphenyl]-3-yl)benzo[d]oxazol-5-yl)methyl)pyrrolidine-3-carboxylic acid] | ≤ 0.01
Cc1c(-c2nc3cc(CN4CC[C@@H](C(=O)NCCO)C4)cc(C#N)c3o2)cccc1-c1cccc(-c2nc3c(s2)CN(C(C)C)CC3)c1C [Example 119, (R)-1-((7-cyano-2-(3′-(5-isopropyl-4,5,6,7-tetrahydrothiazolo[5,4-c]pyridin-2-yl)-2,2′-dimethyl-[1,1′-biphenyl]-3-yl)benzo[d]oxazol-5-yl)methyl)-N-(2-hydroxyethyl)pyrrolidine-3-carboxamide] | ≤ 0.01
Cc1c(-c2nc3cc(CN4CC[C@H](C(=O)O)C4)cc(C#N)c3o2)cccc1-c1cccc(NC(=O)c2nc3c(n2C)CCN(CCO)C3)c1Cl [Example 93, (S)-1-((2-(2′-chloro-3′-(5-(2-hydroxyethyl)-1-methyl-4,5,6,7-tetrahydro-1H-imidazo[4,5-c]pyridine-2-carboxamido)-2-methylbiphenyl-3-yl)-7-cyanobenzo[d]oxazol-5-yl)methyl)pyrrolidine-3-carboxylic acid] | ≤ 0.01
CCN(C)CC(=O)N1Cc2nc(-c3cccc(-c4cccc(-c5nc6cc(CN7CC[C@@H](C(=O)O)C7)cc(C#N)c6o5)c4C)c3C)oc2C1 [Example 241, (R)-1-((7-cyano-2-(3′-(5-(N-ethyl-N-methylglycyl)-5,6-dihydro-4H-pyrrolo[3,4-d]oxazol-2-yl)-2,2′-dimethyl-[1,1′-biphenyl]-3-yl)benzo[d]oxazol-5-yl)methyl)pyrrolidine-3-carboxylic acid] | ≤ 0.01
